For six compounds, MIC, Activity and IC50 results are on record in ChEMBL document CHEMBL5357020, “Reducing Self-Assembly by Increasing Net Charge: Effect on Biological Activity of Mastoparan C” (ACS Med Chem Lett, 2024).

pIC50: −log10 of the molar value. Calls of active or inactive are those of the source. Some results are limits rather than exact numbers.

One data set relates to Escherichia coli. Kind of data set: Antimicrobial activity against Escherichia coli ATCC 25922 assessed as reduction in microbial growth after 24 hrs by broth microdilution method. The data set is classed as functional.
A further data set deals with Bacillus cereus. Kind of data set: Antimicrobial activity against Bacillus cereus ATCC 11778 assessed as reduction in microbial growth after 24 hrs by broth microdilution method. In kind it is functional.
The next data set deals with Candida albicans. Put plainly: Antifungal activity against Candida albicans ATCC 10231 assessed as reduction in fungal growth after 24 hrs by broth microdilution method. The data set is classed as functional. In general terms: Broth dilution looks for growth in wells or tubes with falling amounts of substance.
The test system of another data set is Listeria monocytogenes. Kind of data set: Antimicrobial activity against Listeria monocytogenes ATCC 15313 assessed as reduction in microbial growth after 24 hrs by broth microdilution method. The data set is classed as functional.
The next data set relates to Staphylococcus aureus. Kind of data set: Antimicrobial activity against Staphylococcus aureus ATCC 25923 assessed as reduction in microbial growth after 24 hrs by broth microdilution method. The data set is classed as functional.
The next data set has as its system Pseudomonas aeruginosa. Kind of data set: Antimicrobial activity against Pseudomonas aeruginosa ATCC 27853 assessed as reduction in microbial growth after 24 hrs by broth microdilution method. In kind it is functional.
The next data set concerns Salmonella enterica. Put plainly: Antimicrobial activity against Salmonella enterica ATCC 13076 assessed as reduction in microbial growth after 24 hrs by broth microdilution method. The data set is classed as functional.
For the next data set, the system named is Enterococcus faecalis. Kind of data set: Antimicrobial activity against Enterococcus faecalis ATCC 29212 assessed as reduction in microbial growth after 24 hrs by broth microdilution method. In kind it is functional.
Data set [1] deals with Erythrocyte. Put plainly: Hemolytic activity in human RBC assessed as hemolysis at 32 uM incubated for 30 mins. In kind it is toxicity, cell-based. As to conditions: 0.5 h.
The test system of data set [2] is Erythrocyte. Kind of data set: Hemolytic activity in human RBC assessed as hemolysis at 2 to 128 uM incubated for 30 mins. In kind it is toxicity, cell-based. As to conditions: 0.5 h, dose 2-128 µM.
The test system of the next data set is NCI-H441. Kind of data set: Anticancer activity against human NCI-H441 cells assessed as inhibition of cell growth incubated for 24 hrs by CCK-8 assay. In kind it is functional, cell-based.
In a further data set the test system is A-427. Put plainly: Anticancer activity against human A-427 cells assessed as inhibition of cell growth incubated for 24 hrs by CCK-8 assay. The data set is classed as functional, cell-based. As to conditions: A-427, 24 h. (In general: Tetrazolium assays rely on reduction of a dye to a coloured formazan, in cell work by metabolically active cells.)

For orientation: MIC means the smallest concentration in the dilution series that meets the test's criterion for growth inhibition. What is called pIC50 is the negative decadic logarithm of the IC50, by convention in mol/L.

Regarding `O=C(N[C@H](CO)[C@H](O)c1ccc([N+](=O)[O-])cc1)C(Cl)Cl` [CHLORAMPHENICOL], the MIC in the data set with Escherichia coli was 8 µM; in the data set with Bacillus cereus, 8 µM; in the data set on Candida albicans, > 128 µM; with Listeria monocytogenes, 64 µM; in the data set on Staphylococcus aureus, 32 µM; in the data set with Pseudomonas aeruginosa, > 128 µM. Also, the MIC worked out at 8 µM in the data set on Salmonella enterica and 64 µM in the data set with Enterococcus faecalis.
For the compound `NC[C@H]1O[C@H](O[C@H]2[C@H](O)[C@@H](O[C@H]3O[C@H](CO)[C@@H](O)[C@H](N)[C@H]3O)[C@H](N)C[C@@H]2N)[C@H](O)[C@@H](O)[C@@H]1O` [KANAMYCIN], the MIC in the data set with Escherichia coli was 32 µM; with Bacillus cereus, 64 µM; with Candida albicans, > 128 µM; in the data set on Listeria monocytogenes, 32 µM; with Staphylococcus aureus, 32 µM; in the data set with Pseudomonas aeruginosa, > 128 µM. For the same compound, the MIC is 16 µM in the data set with Salmonella enterica and > 128 µM in the data set on Enterococcus faecalis.
Regarding H-LNLKALLAVAKKIL-NH2, the MIC with Escherichia coli stood at 8 µM; in the data set with Bacillus cereus, 4 µM; in the data set on Candida albicans it was 8 µM; in the data set on Listeria monocytogenes, 8 µM; in the data set on Staphylococcus aureus it was 32 µM; in the data set with Pseudomonas aeruginosa it was 64 µM. For the same compound, the MIC in the data set on Salmonella enterica amounted to 32 µM; in the data set on Enterococcus faecalis, 4 µM. In addition, the figures for the Activity result in the data set on Erythrocyte [1] and with Erythrocyte [2] were “Toxic” and “Non-Toxic”, respectively.
With H-LNLKALLKVAKKIL-NH2, the MIC is 8 µM in the data set on Escherichia coli; 8 µM in the data set on Bacillus cereus; 16 µM in the data set on Candida albicans; 4 µM in the data set on Listeria monocytogenes; 32 µM with Staphylococcus aureus; 64 µM in the data set with Pseudomonas aeruginosa. The MIC with Salmonella enterica was 64 µM; in the data set with Enterococcus faecalis, 4 µM. Besides, the Activity result with Erythrocyte [1] was “Toxic”; with Erythrocyte [2], “Non-Toxic”. In the data set with NCI-H441, the result was Active. The pIC50 with A-427 is 5.15.
On to H-LNLKKLLAVAKKIL-NH2, for which the MIC in the data set with Escherichia coli came to 8 µM; in the data set with Bacillus cereus, 16 µM; in the data set with Candida albicans it was 32 µM; in the data set with Listeria monocytogenes it was 8 µM; in the data set on Staphylococcus aureus it was 64 µM; in the data set on Pseudomonas aeruginosa, 128 µM. Moreover, the MIC in the data set with Salmonella enterica came out at 64 µM; in the data set on Enterococcus faecalis it was 8 µM. For the same compound, the result in the data set with NCI-H441 was Active. The Activity result in the data set with Erythrocyte [2] is “Non-Toxic”. Further, in the data set with A-427, the pIC50 is 5.29.
As for H-LNLKKLLKVAKKIL-NH2, the MIC in the data set on Escherichia coli was 8 µM; with Bacillus cereus, 16 µM; in the data set with Candida albicans, 16 µM; in the data set with Listeria monocytogenes, 4 µM; in the data set on Staphylococcus aureus it was 32 µM; with Pseudomonas aeruginosa it was 64 µM. Moreover, the MIC in the data set with Salmonella enterica came out at 32 µM; in the data set on Enterococcus faecalis, 4 µM. Further, the Activity entry with Erythrocyte [2] is “Non-Toxic”.
